Experimental data reported in PubChem BioAssay AID328 (DTP/NCI, 2004).
Where “and” joins values, the source holds several entries; their conditions need not be identical. Equal entries are not always repeated. Toxic doses and inconclusive results are not listed.

System: BDF1 mice, P388 leukemia ip, median survival T/C
Test: NCI In Vivo Anticancer Drug Screen. Data for tumor model P388 Leukemia (intraperitoneal) in B6D2F1 (BDF1) mice
Conditions: endpoint: median survival time, higher = longer survival
Procedure, shortened: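 Read-out is survival of treated animals expressed relative to the vehicle group, as a T/C ratio.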

[1] = dose: 25.0 mg/kg/injection, schedule: Q04DX003 (ip), vehicle: saline with Tween-80
[2] = dose: 50.0 mg/kg/injection, schedule: Q01DX009 (ip), vehicle: saline with Tween-80
[3] = dose: 50.0 mg/kg/injection, schedule: Q04DX003 (ip), vehicle: saline with Tween-80
[4] = dose: 100.0 mg/kg/injection, schedule: Q01DX009 (ip), vehicle: saline with Tween-80
[5] = dose: 100.0 mg/kg/injection, schedule: Q04DX003 (ip), vehicle: saline with Tween-80
[6] = dose: 200.0 mg/kg/injection, schedule: Q01DX009 (ip), vehicle: saline with Tween-80
[7] = dose: 200.0 mg/kg/injection, schedule: Q04DX003 (ip), vehicle: saline with Tween-80
[8] = dose: 400.0 mg/kg/injection, schedule: Q04DX003 (ip), vehicle: saline with Tween-80
[9] = dose: 2.0 mg/kg/injection, schedule: Q01DX009 (ip), vehicle: saline
[10] = dose: 4.0 mg/kg/injection, schedule: Q01DX009 (ip), vehicle: saline
[11] = dose: 8.0 mg/kg/injection, schedule: Q01DX009 (ip), vehicle: saline
[12] = dose: 12.5 mg/kg/injection, schedule: Q04DX003 (ip), vehicle: saline
[13] = dose: 25.0 mg/kg/injection, schedule: Q04DX003 (ip), vehicle: saline
[14] = dose: 50.0 mg/kg/injection, schedule: Q04DX003 (ip), vehicle: saline
[15] = dose: 400.0 mg/kg/injection, schedule: Q01DX009 (ip), vehicle: saline with Tween-80
[16] = dose: 100.0 mg/kg/injection, schedule: Q04DX003 (ip), vehicle: Klucel (hydroxypropylcellulose) (HPC)
[17] = dose: 200.0 mg/kg/injection, schedule: Q04DX003 (ip), vehicle: Klucel (hydroxypropylcellulose) (HPC)
[18] = dose: 25.0 mg/kg/injection, schedule: Q04DX003 (ip), vehicle: Klucel (hydroxypropylcellulose) (HPC)
[19] = dose: 50.0 mg/kg/injection, schedule: Q01DX010 (ip), vehicle: saline
[20] = dose: 100.0 mg/kg/injection, schedule: Q01DX010 (ip), vehicle: saline
[21] = dose: 200.0 mg/kg/injection, schedule: Q01DX010 (ip), vehicle: saline
[22] = dose: 100.0 mg/kg/injection, schedule: Q01DX001 (ip), vehicle: saline with Tween-80
[23] = dose: 200.0 mg/kg/injection, schedule: Q01DX001 (ip), vehicle: saline with Tween-80
[24] = dose: 400.0 mg/kg/injection, schedule: Q01DX001 (ip), vehicle: saline with Tween-80

COC(=O)C1CC(=O)N(C)c2sc(C)c(C)c2C1=O (stereo not drawn)
T/C [1]: 107 % of control | T/C [2]: 111 % of control | T/C [3]: 92 % of control and 94 % of control | T/C [4]: 111 % of control | T/C [5]: 92 % of control | T/C [6]: 92 % of control | T/C [7]: 95 % of control and 104 % of control | T/C [8]: 100 % of control and 107 % of control | T/C (dose: 500.0 mg/kg/injection, schedule: Q04DX003 (ip), vehicle: saline with Tween-80): 100 % of control

CCCC1CC[N-]CC1.CCCC1CC[N-]CC1.[Cl][Cu][Cl]
T/C [9]: 89 % of control | T/C [10]: 100 % of control | T/C [11]: 100 % of control

NCCc1ccc(OCc2ccccc2)c(OCc2ccccc2)c1
T/C [11]: 100 % of control | T/C (dose: 12.0 mg/kg/injection, schedule: Q01DX009 (ip), vehicle: saline): 104 % of control | T/C [12]: 104 % of control | T/C (dose: 18.0 mg/kg/injection, schedule: Q01DX009 (ip), vehicle: saline): 116 % of control | T/C [13]: 104 % of control | T/C [14]: 100 % of control

COc1ccc(C(C)=O)c(OC)c1C
T/C (dose: 100.0 mg/kg/injection, schedule: Q01DX009 (ip), vehicle: saline): 104 % of control | T/C (dose: 200.0 mg/kg/injection, schedule: Q01DX009 (ip), vehicle: saline): 96 % of control | T/C (dose: 400.0 mg/kg/injection, schedule: Q01DX009 (ip), vehicle: saline): 100 % of control

CCOC(=O)C12CC=CC(CCC1)C2=O (stereo not drawn) (tested in a mixture with another compound)
T/C [4]: 100 % of control | T/C [5]: 90 % of control | T/C [6]: 104 % of control | T/C [7]: 95 % of control | T/C [15]: 90 % of control | T/C [8]: 104 % of control

CCCCOP(=O)(O)CCCC.[Al]
T/C (dose: 12.5 mg/kg/injection, schedule: Q04DX003 (ip), vehicle: saline with Tween-80): 97 % of control | T/C [1]: 97 % of control | T/C [3]: 91 % of control

Cc1cc(C)c(-c2c(C)cc(C)c(C(=O)c3ccc([N+](=O)[O-])cc3)c2C)c(C)c1C(=O)c1ccc([N+](=O)[O-])cc1
T/C (dose: 3.0 mg/kg/injection, schedule: Q01DX009 (ip), vehicle: Klucel (hydroxypropylcellulose) (HPC)): 100 % of control | T/C (dose: 6.0 mg/kg/injection, schedule: Q01DX009 (ip), vehicle: Klucel (hydroxypropylcellulose) (HPC)): 100 % of control | T/C (dose: 12.0 mg/kg/injection, schedule: Q01DX009 (ip), vehicle: Klucel (hydroxypropylcellulose) (HPC)): 95 % of control | T/C (dose: 50.0 mg/kg/injection, schedule: Q01DX009 (ip), vehicle: Klucel (hydroxypropylcellulose) (HPC)): 92 % of control | T/C [16]: 95 % of control | T/C [17]: 100 % of control | T/C (dose: 400.0 mg/kg/injection, schedule: Q04DX003 (ip), vehicle: Klucel (hydroxypropylcellulose) (HPC)): 100 % of control

CC(=O)CC(C)=O.CC(=O)CC(C)=O.c1cc[c]([Sn][c]2ccccc2)cc1
T/C (dose: 100.0 mg/kg/injection, schedule: Q01DX001 (ip), vehicle: Klucel (hydroxypropylcellulose) (HPC)): 160 % of control | T/C (dose: 200.0 mg/kg/injection, schedule: Q01DX001 (ip), vehicle: Klucel (hydroxypropylcellulose) (HPC)): 166 % of control

CC1(C)C2CCC1(C)C1OC(=O)NN=C21 (stereo not drawn)
T/C (dose: 12.5 mg/kg/injection, schedule: Q01DX001 (ip), vehicle: saline with Tween-80): 100 % of control | T/C (dose: 25.0 mg/kg/injection, schedule: Q01DX001 (ip), vehicle: saline with Tween-80): 98 % of control | T/C (dose: 50.0 mg/kg/injection, schedule: Q01DX001 (ip), vehicle: saline with Tween-80): 103 % of control

C/C=C/N=NNc1ccccc1OC
T/C [1]: 113 % of control | T/C [3]: 104 % of control | T/C [5]: 104 % of control

NC(=S)N/N=C/c1ccc(O)cn1
T/C (dose: 18.8 mg/kg/injection, schedule: Q01DX009 (ip), vehicle: saline with Tween-80): 189 % of control | T/C (dose: 25.0 mg/kg/injection, schedule: Q01DX001 (ip), vehicle: Klucel (hydroxypropylcellulose) (HPC)): 100 % of control and 109 % of control | T/C (dose: 25.0 mg/kg/injection, schedule: Q01DX010 (ip), vehicle: saline): 172 % of control | T/C (dose: 25.0 mg/kg/injection, schedule: Q04DX002 (ip), vehicle: Klucel (hydroxypropylcellulose) (HPC)): 103 % of control | T/C [18]: 122 % of control | T/C (dose: 37.5 mg/kg/injection, schedule: Q01DX009 (ip), vehicle: saline with Tween-80): 219 % of control | T/C [19]: 200 % of control | T/C (dose: 75.0 mg/kg/injection, schedule: Q01DX009 (ip), vehicle: saline with Tween-80): 178 % of control | T/C [20]: 227 % of control | T/C [21]: 100 % of control

O=C(O)C1CC2CCC1C2 (stereo not drawn)
T/C [22]: 100 % of control | T/C [23]: 95 % of control | T/C [24]: 100 % of control

Cn1c(=O)c2c(ncn2C)n(C)c1=O
T/C [19]: 100 % of control | T/C [20]: 100 % of control | T/C [21]: 104 % of control

CC(C)=NNS(=O)(=O)c1ccc(C)cc1
T/C [18]: 106 % of control | T/C (dose: 50.0 mg/kg/injection, schedule: Q04DX003 (ip), vehicle: Klucel (hydroxypropylcellulose) (HPC)): 106 % of control | T/C [16]: 111 % of control | T/C [17]: 111 % of control

c1ccc(-c2csc3c4ccccc4c4ccccc4[n+]23)cc1
T/C (dose: 0.5 mg/kg/injection, schedule: Q01DX009 (ip), vehicle: saline): 100 % of control | T/C (dose: 1.0 mg/kg/injection, schedule: Q01DX009 (ip), vehicle: saline): 104 % of control | T/C [9]: 118 % of control | T/C [10]: 113 % of control | T/C [11]: 100 % of control

CSc1nc(Cl)cc2c1ncn2C1OC(CO)C(O)C1O (stereo not drawn)
T/C [12]: 105 % of control | T/C [13]: 102 % of control | T/C [14]: 102 % of control | T/C (dose: 100.0 mg/kg/injection, schedule: Q04DX003 (ip), vehicle: saline): 112 % of control | T/C (dose: 200.0 mg/kg/injection, schedule: Q04DX003 (ip), vehicle: saline): 110 % of control | T/C (dose: 400.0 mg/kg/injection, schedule: Q04DX003 (ip), vehicle: saline): 100 % of control

CC(C)N=Cc1ccccc1O.CC(C)N=Cc1ccccc1O.[Ni]
T/C (dose: 6.25 mg/kg/injection, schedule: Q04DX003 (ip), vehicle: saline sonified): 105 % of control | T/C (dose: 12.5 mg/kg/injection, schedule: Q04DX003 (ip), vehicle: saline sonified): 105 % of control | T/C (dose: 25.0 mg/kg/injection, schedule: Q04DX003 (ip), vehicle: saline sonified): 115 % of control

CN(C)c1ccc(/C=C2\NC(=O)NC2=O)cc1
T/C [22]: 103 % of control | T/C [23]: 97 % of control | T/C [24]: 95 % of control

c1ccc([P+](C[P+](c2ccccc2)(c2ccccc2)c2ccccc2)(c2ccccc2)c2ccccc2)cc1
T/C (dose: 0.39 mg/kg/injection, schedule: Q01DX009 (ip), vehicle: Klucel (hydroxypropylcellulose) (HPC)): 109 % of control | T/C (dose: 0.78 mg/kg/injection, schedule: Q01DX009 (ip), vehicle: Klucel (hydroxypropylcellulose) (HPC)): 109 % of control | T/C (dose: 1.56 mg/kg/injection, schedule: Q01DX009 (ip), vehicle: Klucel (hydroxypropylcellulose) (HPC)): 118 % of control | T/C (dose: 1.72 mg/kg/injection, schedule: Q04DX003 (ip), vehicle: Klucel (hydroxypropylcellulose) (HPC)): 109 % of control | T/C (dose: 2.3 mg/kg/injection, schedule: Q01DX009 (ip), vehicle: Klucel (hydroxypropylcellulose) (HPC)): 115 % of control | T/C (dose: 3.45 mg/kg/injection, schedule: Q04DX003 (ip), vehicle: Klucel (hydroxypropylcellulose) (HPC)): 122 % of control | T/C (dose: 6.9 mg/kg/injection, schedule: Q04DX003 (ip), vehicle: Klucel (hydroxypropylcellulose) (HPC)): 90 % of control

CCCC(Nc1nccs1)Nc1nccs1
T/C [2]: 107 % of control | T/C [4]: 101 % of control | T/C [6]: 101 % of control

CC1(C)C(=O)C2(C(=O)O)CCC1C2 (stereo not drawn)
T/C [4]: 100 % of control | T/C [5]: 95 % of control | T/C [6]: 95 % of control | T/C [7]: 109 % of control | T/C [15]: 100 % of control | T/C [8]: 100 % of control
